From PubChem BioAssay (NCI)
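48-hour exposure; five concentrations; linearly interpolated endpoints. TGI is the concentration that stops growth completely.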

What was measured:
Experiment in all cases: NCI-60 cell line screen, 48 h
[1] = test system: 786-0 renal
[2] = test system: A549 NSCLC
[3] = test system: ACHN renal
[4] = test system: BT-549 breast
[5] = test system: CAKI-1 renal
[6] = test system: CCRF-CEM leukemia
[7] = test system: COLO 205 colon
[8] = test system: DU-145 prostate
[9] = test system: EKVX NSCLC
[10] = test system: HCC-2998 colon
[11] = test system: HCT-116 colon
[12] = test system: HCT-15 colon
[13] = test system: HOP-62 NSCLC
[14] = test system: HOP-92 NSCLC
[15] = test system: HS 578T breast
[16] = test system: HT29 colon
[17] = test system: IGROV1 ovarian
[18] = test system: K-562 leukemia
[19] = test system: KM12 colon
[20] = test system: LOX IMVI melanoma
[21] = test system: M14 melanoma
[22] = test system: MCF7 breast
[23] = test system: MDA-MB-231 breast
[24] = test system: MDA-MB-435
[25] = test system: NCI-H23 lung
[26] = test system: NCI-H460 lung
[27] = test system: NCI-H522 lung
[28] = test system: NCI/ADR-RES ovarian
[29] = test system: OVCAR-3 ovarian
[30] = test system: OVCAR-4 ovarian
[31] = test system: OVCAR-5 ovarian
[32] = test system: OVCAR-8 ovarian
[33] = test system: PC-3 prostate
[34] = test system: RPMI-8226 leukemia
[35] = test system: SF-268 CNS
[36] = test system: SF-295 CNS
[37] = test system: SF-539 CNS
[38] = test system: SK-MEL-2 melanoma
[39] = test system: SK-MEL-28 melanoma
[40] = test system: SK-MEL-5 melanoma
[41] = test system: SN12C renal
[42] = test system: SNB-19 CNS
[43] = test system: SNB-75 CNS
[44] = test system: SW-620 colon
[45] = test system: T-47D breast
[46] = test system: TK-10 renal
[47] = test system: U251 CNS
[48] = test system: UACC-257 melanoma
[49] = test system: UACC-62 melanoma
[50] = test system: UO-31 renal

Measured: TGI

CC(C)=Cc1cc(CCC/C(C)=C/Cc2c(O)cc(C)c(C(=O)O)c2O)co1
> 100 µM: all assays above
